The results in this text go back to PMC9562005, “The Kinetic Mechanism of 3′-5′ Exonucleolytic Activity of AP Endonuclease Nfo from E. coli” (Cells, 2022).

The target in the test is T1, Nfo (AP endonuclease Nfo, endonuclease IV) (Escherichia coli, UniProt P0A6C1).
T1 construct: full-length from pET-11a with nfo gene, expressed in E. coli BL21(DE3); 30 kDa, 3 Zn2+ in active site; the PDB entries are earlier structures of Nfo-DNA complexes
Kind of test: stopped-flow 2-aminopurine fluorescence, inhibition of […]'-5' exonuclease. The class given is biochemical.

`Nc1nc2c(ncn2[C@H]2C[C@H](O)[C@@H](COP(=O)(O)O)O2)c(=O)[nH]1` [2′-deoxyguanosine monophosphate] had an IC50 of 3.2 ± 0.4 mM.

The molecule `Cc1cn([C@H]2C[C@H](O)[C@@H](COP(=O)(O)O)O2)c(=O)[nH]c1=O` [thymidine monophosphate] returned an IC50 of 4.4 ± 0.5 mM.
